We go through one compound from US11419909B2, “Compositions and methods for maintaining or enhancing homeostasis or function of female lower reproductive tract” (FAIRHAVEN HEALTH, LLC, priority 2016, dated 2022).

For the data set the following is noted: plant derived raw materials.

As for `O=C[C@H](O)[C@@H](O)[C@H](O)CO` [D-Xylose source 1, D-Xylose], the “Endotoxin Level” value is <0.07 EU/mg.
